Measured values as given in US9289412B2, “Role of limonoid compounds as neuroprotective agents” (The Johns Hopkins University, priority 2006, dated 2016).
Like-named read-outs stand apart in the source and are kept apart here.

Tested on: rat mixed hippocampal cultures
Assay: 3-NP neurotoxicity assay, MTT viability, rat mixed hippocampal cultures
Type: cell-based
Conditions: for inhibition at 10 µM: Rattus norvegicus; for inhibition at 10 µM / % Protection / % Protection vs 3-NP: 1 h preincubation, test concentration (10 μM)
Procedure: For example, a cell viability assay can be used in a preliminary screen on a large series of compounds each of which is tested at a fixed concentration. In some embodiments, mixed hippocampal cell cultures are prepared as described in, e.g., Haughey et al. (1999), J Neurochem, 73(4):1363-1374, and Haughey et al (2004), J Neurosci, 24(1):257-268. Subsequently, the cultures are pretreated for one hour in the presence of a candidate neuroprotective agent and then incubated with a cytotoxic agent for about 18 hours. Examples of cytotoxic agents include, but are not limited to, oxidative stressors (e.g., 3-nitropropionic acid (3-NP) or H2O2), excitatory amino acids (e.g., kainate), or neurotoxic proteins (e.g., Hiv Tat, or Aβ peptides). […] The level of protection (“percent protection”) provided by the test compound at a given test concentration in vitro can be expressed as: […]
A variety of methods for determining cell viability may be used. In some embodiments, cell viability is assessed based on the “MTT” assay method described in Mosmann (1983), J Immunol Methods, 65(1-2):55-63, or a variant thereof. This assay is based on the ability of a mitochondrial dehydrogenase enzyme from viable cells to cleave the tetrazolium rings of the pale yellow MTT and form dark blue formazan crystals, which are trapped in cells and readily quantified by ELISA spectrophotometry.
We sought to evaluate the protective efficacy of a number of modified terpenoid compounds against the against many different neurotoxins, ranging from the chemotoxic 6-OHDA, NMDA, 3-nitropropionic acid (3-NP), and viral proteins such as Tat and gp120. Thus, we established an in vitro neuroprotection assay using rat mixed hippocampal cultures, in which we evaluated the protective efficacy of neuroprotective compounds disclosed herein. The oxidative stressor 3-NP was used to elicit toxicity in the rat hippocampal cultures to mimic the oxidative damage, reactive oxygen species production and ensuing neurodegeneration resulting from HIV infection. Another measure of neurotoxicity which results from HIV infection was evaluated by exposure of the hippocampal cultures to HIV-1 Tat (Li et al (2005), Neurotox Res, 8(1-2): 119-134).
Rat mixed hippocamal neuronal cultures were generated from freshly dissected rat hippocampi (embryonic day 18) in neurobasal media containing 5% fetal bovine serum and 2% B27 supplement. The cells were plated into 96 well plates at a density of 4×10^5 cells/mL and routinely used on days 11-14 following culturing. Cell viability was assessed with MTT [3-(4,5-dimethylthiazol-2-yl)-2,5-diphenyltetrazolium bromide] assay. The MTT assay is based on the ability of a mitochondrial dehydrogenase enzyme from viable cells to cleave the tetrazolium rings of the pale yellow MTT and form dark blue formazan crystals. See Mosmann (1983), J Immunol Methods, 65(1-2):55-63. These crystals are largely impermeable to cell membranes, and thus accumulate within healthy cells. The resultant formazan precipitates are solubilized with DMSO and read on a multiwell scanning spectrophotometer (ELISA reader). The number of surviving cells is directly proportional to the level of the formazan product created.
Mixed hippocampal cultures were incubated with 3-NP (0.5-10 mM) for 18 hours and then assessed for viability using an MTT assay.
Cultures were preincubated with GPI 1046 or Resveratrol for one hour prior to an 18 hour exposure to 3 mM 3-NP. […] The same neuroprotective compounds were evaluated for efficacy against HIV-1 Tat protein toxicity using the same 1 hour preincubation protocol.

[1] = Table 2, vs 3 mM 3-NP 18 h, read-out: % Protection

## C[C@@H]([C@H]1OC(C)(C)[C@@H](O)[C@H]1O)[C@@H]1CC[C@]2(C)C3=CC[C@H]4C(C)(C)C(=O)CC[C@]4(C)[C@H]3CC[C@@]12C [odoratone]
3 mM 3-NP, approximate values
  protection against 3-NP (FIG. 5): 60-70%

## COC1=C[C@@H](C)[C@@H]2C[C@H]3OC(=O)C[C@H]4C(C)=C(OC)C(=O)[C@H]([C@@]2(C)C1=O)[C@@]34C [QUASSIN]
Table 3, 3 mM 3-NP 18 h, read-out: % Protection vs 3-NP
  inhibition at 10 µM: 8%

## CC(=O)O[C@@H]1CC2C(C)(C)[C@H](O)C=C[C@]2(C)C2CC[C@]3(C)C(=CC(=O)O[C@H]3c3ccoc3)[C@@]21C (stereo partly drawn) [3-alpha- HYDROXYDEOXYGEDININ, 3-alpha-HYDROXYDEOXYGEDININ]
Table 2, vs 3 mM 3-NP 18 h
  % Protection: 28%

## CC(=O)OC1CC2C(C)(C)CCC(=O)[C@]2(C)C2CC[C@@]3(C)[C@H](c4ccoc4)OC(=O)C4OC43[C@]12C (stereo partly drawn) [2,3-DIHYDROISOGEDUNIN]
Table 2, vs 3 mM 3-NP 18 h
  % Protection: 44%

## CC(=O)OC1C=C[C@@]2(C)C(C[C@@H](OC(C)=O)[C@@]3(C)C4=CC(=O)O[C@@H](c5ccoc5)[C@]4(C)CCC23)C1(C)C (stereo partly drawn) [DEOXYGEDUNOL ACETATE]
[1]
  inhibition at 10 µM: 54%

## CC(=O)OC1CC2C(C)(C)[C@@H](O)CC[C@]2(C)C2CC[C@]3(C)[C@H](c4ccoc4)OC(=O)[C@H]4O[C@]43[C@]12C (stereo partly drawn) [3beta- HYDROXYDEOXODIHYDRO- GEDUNIN, 3beta-HYDROXYDEOXODIHYDROGEDUNIN]
[1]
  inhibition at 10 µM: 82%

## COC(=O)C[C@H]1C(C)(C)C(=O)[C@@H]2CC3=C(CC[C@]4(C)C3=CC(=O)O[C@H]4c3ccoc3)[C@@]1(C)C2=O [CARAPIN-8(9)-ENE]
Table 3, 3 mM 3-NP 18 h
  % Protection vs 3-NP: 38%

## CCC(C)C(=O)O[C@@H]1C[C@@]2(C)[C@H](c3ccoc3)OC(=O)CC23OC2(C)OC34[C@H](OC(=O)C(C)C)[C@@]3(O)[C@@H](OC(=O)C5(C)OC5C)[C@@]5(C)C[C@]3(O)[C@@](C)([C@H]5CC(=O)OC)C14O2 (stereo partly drawn) [ENTANDROPHRAGMIN]
Table 3, 3 mM 3-NP 18 h
  % Protection vs 3-NP: 18%

## CC(=O)O[C@@H]1CC2C(C)(C)C(=O)C3OC3[C@]2(C)C2CC[C@@]3(C)C(=CC(=O)O[C@@H]3c3ccoc3)[C@@]21C (stereo partly drawn) [1 (2)alpha- EPOXYDEOXYDIHYDRO- GEDUNIN, 1 (2)alpha-EPOXYDEOXYDIHYDROGEDUNIN]
[1]
  inhibition at 10 µM: 14%

## COC(=O)C[C@H]1C(C)(C)C2(O)OC34CC2C(=O)[C@]1(C)C3CC[C@]1(C)C4=CC(=O)O[C@H]1c1ccoc1 (stereo partly drawn) [8beta-HYDROXYCARAPIN, 3,8-HEMIACETAL]
Table 3, 3 mM 3-NP 18 h
  % Protection vs 3-NP: 9%

## C=C1C2CC[C@@]3(C)[C@H](c4ccoc4)OC(=O)C[C@]13O[C@H]1C[C@@H](OC(C)=O)C(C)(C)[C@H](CC(=O)OC)[C@@]21C [3beta-ACETOXYDEOXYANGOLENSIC ACID, METHYL ESTER]
[1]
  inhibition at 10 µM: 128%

## CC(=O)O[C@@H]1CC2C(C)(C)CCC[C@]2(C)C2CC[C@@]3(C)[C@H](c4ccoc4)OC(=O)C4OC43[C@@]21C (stereo partly drawn) [DEOXODIHYDROGEDUNIN]
[1]
  inhibition at 10 µM: 101%
